The source of these data is BindingDB's records for doi:10.1016/j.bmcl.2011.01.079 (The Scripps Research Institute, 2011).

In this assay the target is Transcription factor Jun (Homo sapiens, UniProt P05412). As to the kind of experiment: Inhibition of c-Jun.
Chain of Transcription factor Jun (P05412 whole entry): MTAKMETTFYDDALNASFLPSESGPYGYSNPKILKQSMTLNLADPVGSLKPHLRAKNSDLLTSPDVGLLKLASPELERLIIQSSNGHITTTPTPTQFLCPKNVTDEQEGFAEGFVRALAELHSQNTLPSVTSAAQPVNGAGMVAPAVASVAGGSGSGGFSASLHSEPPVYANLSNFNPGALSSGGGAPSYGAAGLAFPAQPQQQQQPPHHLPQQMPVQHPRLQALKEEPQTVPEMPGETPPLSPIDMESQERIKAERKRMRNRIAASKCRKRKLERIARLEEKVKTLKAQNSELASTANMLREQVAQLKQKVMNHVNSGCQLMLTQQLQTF
The term IC50 denotes the concentration that inhibits the measured activity by half. A higher IC50 goes with weaker potency. Turning to `Cc1ccc(-c2cccc3cnc(NC4CCC(O)CC4)nc23)cn1` (stereo unspecified) [4-(8-(6-methylpyridin-3-yl)quinazolin-2-ylamino)cyclohexanol], the IC50 was found to be 930 nM.

For `Cn1cc(-c2ccc3cnc(Nc4ccc(-n5cnc(N6CCOCC6)n5)cc4)nc3c2-c2cnn(C)c2)cn1` [7,8-bis(1-methyl-1H-pyrazol-4-yl)-N-(4-(3-morpholino-1H-1,2,4-triazol-1-yl)phenyl)quinazolin-2-amine], the IC50 was 40 nM.

`Cn1cc(-c2ccc3cnc(Nc4ccc(-n5cnc(-c6ccccn6)n5)cc4)nc3c2)cn1` [7-(1-methyl-1H-pyrazol-4-yl)-N-(4-(3-(pyridin-2-yl)-1H-1,2,4-triazol-1-yl)phenyl)quinazolin-2-amine] showed an IC50 of 290 nM.

For the compound `Cn1cc(-c2ccc3cnc(Nc4ccc(-n5cnc(N6CCOCC6)n5)cc4)nc3c2-c2ccccc2)cn1` [7-(1-methyl-1H-pyrazol-4-yl)-N-(4-(3-morpholino-1H-1,2,4-triazol-1-yl)phenyl)-8-phenylquinazolin-2-amine], 40 nM corresponded to half-maximal inhibition (IC50).

The compound `Cn1cc(-c2ccc3cnc(Nc4ccc(-n5cnc(N6CCOCC6)n5)cc4)nc3c2)cn1` [7-(1-methyl-1H-pyrazol-4-yl)-N-(4-(3-morpholino-1H-1,2,4-triazol-1-yl)phenyl)quinazolin-2-amine] had an IC50 of 310 nM.

`Cn1cc(-c2cccc3cnc(Nc4ccc(-n5cnc(N6CCOCC6)n5)cc4)nc23)cn1` [8-(1-methyl-1H-pyrazol-4-yl)-N-(4-(3-morpholino-1H-1,2,4-triazol-1-yl)phenyl)quinazolin-2-amine] had an IC50 of 330 nM.

`COc1ccc(-c2cccc3cnc(Nc4ccc(-n5cnc(-c6ccccn6)n5)cc4)nc23)cc1F` [8-(3-fluoro-4-methoxyphenyl)-N-(4-(3-(pyridin-2-yl)-1H-1,2,4-triazol-1-yl)phenyl)quinazolin-2-amine]: the IC50 came out at 5100 nM.

As for `COc1ccc(-c2cccc3cnc(Nc4ccc(-n5cnc(C)n5)cc4)nc23)cc1F` [8-(3-fluoro-4-methoxyphenyl)-N-(4-(3-methyl-1H-1,2,4-triazol-1-yl)phenyl)quinazolin-2-amine], the IC50 turned out to be 500 nM.

Compound `COc1ccc(-c2cccc3cnc(Nc4ccc(-n5cnc(N6CCOCC6)n5)cc4)nc23)cc1F` [8-(3-fluoro-4-methoxyphenyl)-N-(4-(3-morpholino-1H-1,2,4-triazol-1-yl)phenyl)quinazolin-2-amine] had an IC50 of 250 nM.

As to `CC(C)n1cc(-c2ccc3cnc(Nc4ccc(-n5cnc(N6CCOCC6)n5)cc4)nc3c2Cl)cn1` [8-chloro-7-(1-isopropyl-1H-pyrazol-4-yl)-N-(4-(3-morpholino-1H-1,2,4-triazol-1-yl)phenyl)quinazolin-2-amine], the IC50 turned out to be 620 nM.

For the compound `Cn1cc(-c2ccc3cnc(Nc4ccc(-n5cnc(N6CCOCC6)n5)cc4)nc3c2Cl)cn1` [8-chloro-7-(1-methyl-1H-pyrazol-4-yl)-N-(4-(3-morpholino-1H-1,2,4-triazol-1-yl)phenyl)quinazolin-2-amine], the concentration for half-maximal inhibition (IC50) was 100 nM.

Regarding `Cn1cc(-c2ccc3cnc(Nc4ccc(-n5cnc(N6CCOCC6)n5)cc4)nc3c2C2CC2)cn1` [8-cyclopropyl-7-(1-methyl-1H-pyrazol-4-yl)-N-(4-(3-morpholino-1H-1,2,4-triazol-1-yl)phenyl)quinazolin-2-amine], the IC50 was found to be 130 nM.

For the compound `COc1c(-c2cnn(C)c2)ccc2cnc(Nc3ccc(-n4cnc(N5CCOCC5)n4)cc3)nc12` [8-methoxy-7-(1-methyl-1H-pyrazol-4-yl)-N-(4-(3-morpholino-1H-1,2,4-triazol-1-yl)phenyl)quinazolin-2-amine], the IC50 turned out to be 50 nM.

`Cc1c(-c2cnn(C)c2)ccc2cnc(Nc3ccc(-n4cnc(N5CCOCC5)n4)cc3)nc12` [8-methyl-7-(1-methyl-1H-pyrazol-4-yl)-N-(4-(3-morpholino-1H-1,2,4-triazol-1-yl)phenyl)quinazolin-2-amine]: the half-inhibitory concentration (IC50) was determined as 160 nM.

As to `Cc1ccc(-c2cccc3cnc(N[C@H]4CC[C@@H](C(=O)N5CCCC5)CC4)nc23)cn1` [((cis)-4-(8-(6-methylpyridin-3-yl)quinazolin-2-ylamino)cyclohexyl)(pyrrolidin-1-yl)methanone], the half-maximal inhibitory concentration (IC50) was determined as 3000 nM.

For the compound `Cc1ccc(-c2ncn(-c3ccc(Nc4ncc5ccc(-c6cn[nH]c6)cc5n4)cc3)n2)cn1` [N-(4-(3-(6-methylpyridin-3-yl)-1H-1,2,4-triazol-1-yl)phenyl)-7-(1H-pyrazol-4-yl)quinazolin-2-amine], the concentration for half-maximal inhibition (IC50) amounted to 40 nM.

`Cc1ncn(-c2ccc(Nc3ncc4cccc(-c5nccs5)c4n3)cc2)n1` [N-(4-(3-methyl-1H-1,2,4-triazol-1-yl)phenyl)-8-(thiazol-2-yl)quinazolin-2-amine]: half-maximal inhibition (IC50) required 200 nM.

On to `c1cc(-n2cnc(N3CCOCC3)n2)ccc1Nc1ncc2ccc(-c3cn[nH]c3)cc2n1` [N-(4-(3-morpholino-1H-1,2,4-triazol-1-yl)phenyl)-7-(1H-pyrazol-4-yl)quinazolin-2-amine], for which 120 nM corresponded to half-maximal inhibition (IC50).

Regarding `c1cc(-c2nccs2)c2nc(Nc3ccc(-n4cnc(N5CCOCC5)n4)cc3)ncc2c1` [N-(4-(3-morpholino-1H-1,2,4-triazol-1-yl)phenyl)-8-(thiazol-2-yl)quinazolin-2-amine], the half-inhibitory concentration (IC50) is 3000 nM.

Turning to `c1ccc(-c2cccc3cnc(Nc4ccc(-n5cnc(N6CCOCC6)n5)cc4)nc23)cc1` [N-(4-(3-morpholino-1H-1,2,4-triazol-1-yl)phenyl)-8-phenylquinazolin-2-amine], the 50% inhibitory concentration (IC50) came out at 1400 nM.

Compound `Cc1ccc(-c2cccc3cnc(Nc4ccc5c(c4)OCO5)nc23)cn1` [N-(benzo[d][1,3]dioxol-5-yl)-8-(6-methylpyridin-3-yl)quinazolin-2-amine] showed an IC50 of 630 nM.
